Numbers after ± are expanded uncertainties.
Legend:
[1] = for mass density: 298.15 K, 101.33 kPa, Liquid, Vibrating tube method
[2] = Molar enthalpy of transition or fusion; conditions: Crystal; DSC

SMILES | mass density [1] | Glass transition temperature ([1]; DTA) | Normal melting temperature ([1]; Crystal, DTA) | Molar enthalpy of transition or fusion [2]
CCCC[n+]1ccn(CC)c1.O=S(=O)([N-]S(=O)(=O)C(F)(F)F)C(F)(F)F | 1401.8 ± 14 kg/m3 | -92.2 ± 3 °C | – | –
CCn1cc[n+](CC)c1.O=S(=O)([N-]S(=O)(=O)C(F)(F)F)C(F)(F)F [1,3-diethylimidazolium bis[(trifluoromethyl)sulfonyl]imide] | 1476 ± 15 kg/m3 | -67.2 ± 3 °C | -10.5 ± 0.4 °C | 4.88 ± 0.191 kcal/mol
CCCC[n+]1ccn(CC)c1.F[P-](F)(F)(F)(F)F [1-butyl-3-ethylimidazolium hexafluorophosphate] | 1327.6 ± 12 kg/m3 | -80.2 ± 3 °C | – | –
CCCCCCn1cc[n+](CC)c1.O=S(=O)([N-]S(=O)(=O)C(F)(F)F)C(F)(F)F [1-hexyl-3-ethylimidazolium bis(trifluoromethylsulfonyl)imide] | 1345.4 ± 13 kg/m3 | -88.3 ± 3 °C | – | –
